Assay results: ChEMBL document CHEMBL1139978, “Synthesis and radiopharmacological characterization of [11C]AL-438 as a nonsteroidal ligand for imaging brain glucocorticoid receptors” (Bioorg Med Chem Lett, 2007)

Experiments:
Femur [1] = assay: Biodistribution in corticosterone pretreated Wistar rat femur at 20 MBq, iv after 5 mins; type: ADME, organism-based; settings: in vivo
Spleen [2] = assay: Biodistribution in Wistar rat spleen at 20 MBq, iv after 5 mins; type: ADME, organism-based; settings: in vivo
Pituitary gland [3] = assay: Biodistribution in Wistar rat pituitary at 20 MBq, iv after 5 mins; type: ADME, organism-based; settings: in vivo
Thymus [4] = assay: Biodistribution in Wistar rat thymus at 20 MBq, iv after 5 mins; type: ADME, organism-based; settings: in vivo
Rattus norvegicus [5] = assay: Biodistribution in Wistar rat testis at 20 MBq, iv after 60 mins; type: ADME, organism-based; settings: in vivo, 1 h
Rattus norvegicus [6] = assay: Biodistribution in corticosterone pretreated Wistar rat rest of brain at 20 MBq, iv after 60 mins; type: ADME, organism-based; settings: in vivo, 1 h
Kidney [7] = assay: Biodistribution in corticosterone pretreated Wistar rat kidney at 20 MBq, iv after 60 mins; type: ADME, organism-based; settings: in vivo, 1 h
Pituitary gland [8] = assay: Biodistribution in corticosterone pretreated Wistar rat pituitary at 20 MBq, iv after 5 mins; type: ADME, organism-based; settings: in vivo
Liver [9] = assay: Biodistribution in corticosterone pretreated Wistar rat liver at 20 MBq, iv after 60 mins; type: ADME, organism-based; settings: in vivo, 1 h
Lung [10] = assay: Biodistribution in Wistar rat lung at 20 MBq, iv after 60 mins; type: ADME, organism-based; settings: in vivo, 1 h
Liver [11] = assay: Biodistribution in Wistar rat liver at 20 MBq, iv after 5 mins; type: ADME, organism-based; settings: in vivo
Rattus norvegicus [12] = assay: Biodistribution in Wistar rat testis at 20 MBq, iv after 5 mins; type: ADME, organism-based; settings: in vivo
Rattus norvegicus [13] = assay: Biodistribution in corticosterone pretreated Wistar rat brown fat at 20 MBq, iv after 5 mins; type: ADME, organism-based, Brown adipose tissue; settings: in vivo
Rattus norvegicus [14] = assay: Biodistribution in Wistar rat rest of brain at 20 MBq, iv after 60 mins; type: ADME, organism-based; settings: in vivo, 1 h
Cortex = assay: Biodistribution in Wistar rat cortex at 20 MBq, iv after 60 mins; type: ADME, organism-based; settings: in vivo, 1 h
Rattus norvegicus [15] = assay: Biodistribution in corticosterone pretreated Wistar rat brown fat at 20 MBq, iv after 60 mins; type: ADME, organism-based, Brown adipose tissue; settings: in vivo, 1 h
Thymus [16] = assay: Biodistribution in corticosterone pretreated Wistar rat thymus at 20 MBq, iv after 60 mins; type: ADME, organism-based; settings: in vivo, 1 h
Heart [17] = assay: Biodistribution in Wistar rat heart at 20 MBq, iv after 5 mins; type: ADME, organism-based; settings: in vivo
Kidney [18] = assay: Biodistribution in corticosterone pretreated Wistar rat kidney at 20 MBq, iv after 5 mins; type: ADME, organism-based; settings: in vivo
Pancreas = assay: Biodistribution in Wistar rat pancreas at 20 MBq, iv after 5 mins; type: ADME, organism-based; settings: in vivo
Rattus norvegicus [19] = assay: Biodistribution in Wistar rat fat at 20 MBq, iv after 60 mins; type: ADME, organism-based, Adipose tissue; settings: in vivo, 1 h
Muscle tissue [20] = assay: Biodistribution in corticosterone pretreated Wistar rat muscle at 20 MBq, iv after 5 mins; type: ADME, organism-based; settings: in vivo
Liver [21] = assay: Biodistribution in corticosterone pretreated Wistar rat liver at 20 MBq, iv after 5 mins; type: ADME, organism-based; settings: in vivo
Pituitary gland [22] = assay: Biodistribution in corticosterone pretreated Wistar rat pituitary at 20 MBq, iv after 60 mins; type: ADME, organism-based; settings: in vivo, 1 h
Liver [23] = assay: Biodistribution in Wistar rat liver at 20 MBq, iv after 60 mins; type: ADME, organism-based; settings: in vivo, 1 h
Heart [24] = assay: Biodistribution in corticosterone pretreated Wistar rat heart at 20 MBq, iv after 60 mins; type: ADME, organism-based; settings: in vivo, 1 h
Blood [25] = assay: Biodistribution in Wistar rat blood at 20 MBq, iv after 5 mins; type: ADME, organism-based; settings: in vivo
Rattus norvegicus [26] = assay: Biodistribution in corticosterone pretreated Wistar rat fat at 20 MBq, iv after 5 mins; type: ADME, organism-based, Adipose tissue; settings: in vivo
Femur [27] = assay: Biodistribution in Wistar rat femur at 20 MBq, iv after 60 mins; type: ADME, organism-based; settings: in vivo, 1 h
Spleen [28] = assay: Biodistribution in corticosterone pretreated Wistar rat spleen at 20 MBq, iv after 60 mins; type: ADME, organism-based; settings: in vivo, 1 h
Blood [29] = assay: Biodistribution in corticosterone pretreated Wistar rat blood at 20 MBq, iv after 60 mins; type: ADME, organism-based; settings: in vivo, 1 h
Lung [30] = assay: Biodistribution in Wistar rat lung at 20 MBq, iv after 5 mins; type: ADME, organism-based; settings: in vivo
Muscle tissue [31] = assay: Biodistribution in Wistar rat muscle at 20 MBq, iv after 60 mins; type: ADME, organism-based; settings: in vivo, 1 h
Rattus norvegicus [32] = assay: Biodistribution in corticosterone pretreated Wistar rat rest of brain at 20 MBq, iv after 5 mins; type: ADME, organism-based; settings: in vivo
Thymus [33] = assay: Biodistribution in Wistar rat thymus at 20 MBq, iv after 60 mins; type: ADME, organism-based; settings: in vivo, 1 h
Harderian gland = assay: Biodistribution in Wistar rat harderian gland at 20 MBq, iv after 5 mins; type: ADME, organism-based; settings: in vivo
Blood [34] = assay: Biodistribution in corticosterone pretreated Wistar rat blood at 20 MBq, iv after 5 mins; type: ADME, organism-based; settings: in vivo
Rattus norvegicus [35] = assay: Biodistribution in corticosterone pretreated Wistar rat testis at 20 MBq, iv after 5 mins; type: ADME, organism-based; settings: in vivo
Adrenal = assay: Biodistribution in corticosterone pretreated Wistar rat adrenal at 20 MBq, iv after 5 mins; type: ADME, organism-based, Adrenal tissue; settings: in vivo
Femur [36] = assay: Biodistribution in corticosterone pretreated Wistar rat femur at 20 MBq, iv after 60 mins; type: ADME, organism-based; settings: in vivo, 1 h

Structure (SMILES): C=CCC1Oc2cccc(O[11CH3])c2-c2ccc3c(c21)C(C)=CC(C)(C)N3 (stereo not given)
- Drug uptake (Femur [1]): 0.85 % ID/g
- Drug uptake (Spleen [2]): 0.97 % ID/g
- Drug uptake (Pituitary gland [3]): 2.49 % ID/g
- Drug uptake (Thymus [4]): 1.57 % ID/g
- Drug uptake (Rattus norvegicus [5]): 0.52 % ID/g
- Drug uptake (Rattus norvegicus [6]): 0.61 % ID/g
- Drug uptake (Kidney [7]): 1.13 % ID/g
- Drug uptake (Pituitary gland [8]): 2.45 % ID/g
- Drug uptake (Liver [9]): 3.84 % ID/g
- Drug uptake (Lung [10]): 1.11 % ID/g
- Drug uptake (Liver [11]): 2.65 % ID/g
- Drug uptake (Rattus norvegicus [12]): 0.47 % ID/g
- Drug uptake (Rattus norvegicus [13]): 5 % ID/g
- Drug uptake (Rattus norvegicus [14]): 0.56 % ID/g
- Drug uptake (Cortex): 0.6 % ID/g
- Drug uptake (Rattus norvegicus [15]): 7.44 % ID/g
- Drug uptake (Thymus [16]): 1.6 % ID/g
- Drug uptake (Heart [17]): 1.7 % ID/g
- Drug uptake (Kidney [18]): 2.06 % ID/g
- Drug uptake (Pancreas): 2.79 % ID/g
- Drug uptake (Rattus norvegicus [19]): 3.11 % ID/g
- Drug uptake (Muscle tissue [20]): 0.9 % ID/g
- Drug uptake (Liver [21]): 3.04 % ID/g
- Drug uptake (Pituitary gland [22]): 1.76 % ID/g
- Drug uptake (Liver [23]): 2.54 % ID/g
- Drug uptake (Heart [24]): 0.67 % ID/g
- Drug uptake (Blood [25]): 0.52 % ID/g
- Drug uptake (Rattus norvegicus [26]): 1.51 % ID/g
- Drug uptake (Femur [27]): 0.88 % ID/g
- Drug uptake (Spleen [28]): 0.91 % ID/g
- Drug uptake (Blood [29]): 0.74 % ID/g
- Drug uptake (Lung [30]): 1.44 % ID/g
- Drug uptake (Muscle tissue [31]): 0.59 % ID/g
- Drug uptake (Rattus norvegicus [32]): 1.46 % ID/g
- Drug uptake (Thymus [33]): 1.48 % ID/g
- Drug uptake (Harderian gland): 1.68 % ID/g
- Drug uptake (Blood [34]): 0.52 % ID/g
- Drug uptake (Rattus norvegicus [35]): 0.43 % ID/g
- Drug uptake (Adrenal): 8.68 % ID/g
- Drug uptake (Femur [36]): 0.7 % ID/g
